Holding throughout (format): in vivo
Holding throughout (conditions): 250 g/ha, evaluated visually after 13 days, scale 0-5

The test system of assay [1] is Amaranthus retroflexus (AMARE). The experiment in a line: Herbicidal efficacy, application post-emergence. The procedure: (§1) Seeds of a variety of test species [Ipomoea hederacea (IPOHE); Zea mays (ZEAMX); Echinochloa crus-galli (ECHCG); Setaria faberi (SETFA); Abutilon theophrasti (ABUTH); Amaranthus retroflexus (AMARE)] were sown in standard sterilised soil in pots. After cultivation for one day (pre-emergence) or after 8 days cultivation (post-emergence) under controlled conditions in a glasshouse (at 24/16° C., day/night; 14 hours light; 65 % humidity), the plants were sprayed with an aqueous spray solution derived from the formulation of the technical active ingredient in acetone / water (50:50) solution containing 0.5% Tween 20 (polyoxyethelyene sorbitan monolaurate, CAS RN 9005-64-5), subsequently diluted in water, and sprayed to give the stated application rate.
(§2) The test plants were then grown under controlled conditions in a glasshouse (at 24/16° C., day/night; 14 hours light; 65 % humidity) and watered twice daily.
(§3) After 13 days for pre- and post-emergence, the test was evaluated visually for percentage phytotoxicity to the plant (where 5 = total damage to plant; 0 = no damage to plant).

The subject of assay [2] is Zea mays (ZEAMX). Description: Herbicidal efficacy, application post-emergence. The procedure:
as §1, §2, §3

Assay [3] has as its system Echinochloa crus-galli (ECHCG). The experiment in a line: Herbicidal efficacy, application post-emergence. The procedure: as §1, §2, §3
For assay [4], the system named is Setaria faberi (SETFA). The experiment in a line: Herbicidal efficacy, application post-emergence. The protocol:
as §1, §2, §3

Assay [5] relates to Ipomoea hederacea (IPOHE). The experiment in a line: Herbicidal efficacy, application post-emergence. The protocol:
as §1, §2, §3

Assay [6] relates to Abutilon theophrasti (ABUTH). Description: Herbicidal efficacy, application pre-emergence. Also on record: key: 5 = total damage to plant; 0 = no damage to plant. The protocol: as §1, §2, §3
The test system of assay [7] is Amaranthus retroflexus (AMARE). Description: Herbicidal efficacy, application pre-emergence. Details: key: 5 = total damage to plant; 0 = no damage to plant. The procedure:
as §1, §2, §3

Assay [8] deals with Echinochloa crus-galli (ECHCG). Description: Herbicidal efficacy, application pre-emergence. Also on record: key: 5 = total damage to plant; 0 = no damage to plant. The procedure:
as §1, §2, §3

In assay [9] the test system is Setaria faberi (SETFA). The experiment in a line: Herbicidal efficacy, application pre-emergence. Also on record: key: 5 = total damage to plant; 0 = no damage to plant. The protocol:
as §1, §2, §3

In assay [10] the test system is Ipomoea hederacea (IPOHE). Description: Herbicidal efficacy, application pre-emergence. Also on record: key: 5 = total damage to plant; 0 = no damage to plant. The procedure:
as §1, §2, §3

The test system of assay [11] is Abutilon theophrasti (ABUTH). Description: Herbicidal efficacy, application post-emergence. Details: key: 5 = total damage to plant; 0 = no damage to plant. The procedure:
as §1, §2, §3

Assay [12] has as its system Zea mays (ZEAMX). The experiment in a line: Herbicidal efficacy, application pre-emergence. The procedure:
as §1, §2, §3

The results in this text go back to patent US20230312478A1, “HERBICIDAL COMPOUNDS” (SYNGENTA CROP PROTECTION AG, priority 2020, published 2023).

SMILES strings stand for the structures.

As to `Cc1c(Br)c(C2CN(C)C(=O)C2C(=O)Nc2ccc(F)nc2F)nn1C(F)F` (stereo not drawn) [Compound 83, 4-[4-bromo-1-(difluoromethyl)-5-methyl-pyrazol-3-yl]-N-(2,6-difluoro-3-pyridyl)-1-methyl-2-oxo-pyrrolidine-3-carboxamide], the “phytotoxicity to the plant, AMARE” value amounted to 1 in assay [1] and 0 in [7]. Also, the figures for the “phytotoxicity to the plant, ZEAMX” value in the assay with Zea mays (ZEAMX) [2] and in the assay on Zea mays (ZEAMX) [12] were 4 and 1, respectively. The “phytotoxicity to the plant, ECHCG” value in assay [3] was 4; in [8] it was 5. Also, the results for the “phytotoxicity to the plant, SETFA” value in the assay on Setaria faberi (SETFA) [4] and in the assay on Setaria faberi (SETFA) [9] were 3 and 5, respectively. Besides, the entries for the “phytotoxicity to the plant, IPOHE” value in [5] and in [10] were 1 and 0, respectively. Besides, the “phytotoxicity to the plant, ABUTH” value came out at 0 in assay [6] and 1 in assay [11].
For `CCc1cc(C2CN(C)C(=O)C2C(=O)Nc2ccc(F)nc2F)nn1C(F)F` (stereo not drawn) [Compound 82, 4-[1-(difluoromethyl)-5-ethyl-pyrazol-3-yl]-N-(2,6-difluoro-3-pyridyl)-1-methyl-2-oxo-pyrrolidine-3-carboxamide], the “phytotoxicity to the plant, AMARE” value in [1] and in assay [7] was 1 throughout. The “phytotoxicity to the plant, ZEAMX” value is given as 4 in the assay with Zea mays (ZEAMX) [2] and 3 with Zea mays (ZEAMX) [12]. For the same compound, the “phytotoxicity to the plant, ECHCG” value in assay [3] was 4; in assay [8], 5. Further, the “phytotoxicity to the plant, SETFA” value worked out at 4 in the assay with Setaria faberi (SETFA) [4] and 5 with Setaria faberi (SETFA) [9]. The “phytotoxicity to the plant, IPOHE” value in [5] amounted to 4; in [10] it was 3. The “phytotoxicity to the plant, ABUTH” value in assay [6] and in [11] was 1 each time.
For the compound `Cc1cc(C2CN(C)C(=O)C2C(=O)Nc2cccc(F)c2F)nn1C(F)F` (stereo not drawn) [Compound 33, 4-[1-(difluoromethyl)-5-methyl-pyrazol-3-yl]-N-(2,3-difluorophenyl)-1-methyl-2-oxo-pyrrolidine-3-carboxamide], the “phytotoxicity to the plant, AMARE” value in assay [1] and in assay [7] was 2 throughout. Moreover, the “phytotoxicity to the plant, ZEAMX” value with Zea mays (ZEAMX) [2] turned out to be 3; with Zea mays (ZEAMX) [12], 4. In addition, the “phytotoxicity to the plant, ECHCG” value is given as 4 in assay [3] and 5 in [8]. For the same compound, the “phytotoxicity to the plant, SETFA” value with Setaria faberi (SETFA) [4] is 4; in the assay with Setaria faberi (SETFA) [9] it was 5. For the same compound, the “phytotoxicity to the plant, IPOHE” value in assay [5] was determined as 4; in assay [10], 1. The “phytotoxicity to the plant, ABUTH” value in [6] and in assay [11] was 1 each time.
Turning to `Cc1c(F)cccc1NC(=O)C1C(=O)N(C)CC1c1cc(C)n(C(F)F)n1` (stereo not drawn) [Compound 9, 4-[1-(difluoromethyl)-5-methyl-pyrazol-3-yl]-N-(3-fluoro-2-methyl-phenyl)-1-methyl-2-oxo-pyrrolidine-3-carboxamide], the “phytotoxicity to the plant, AMARE” value in assay [1] is 3; in assay [7], 1. In addition, the “phytotoxicity to the plant, ZEAMX” value in the assay on Zea mays (ZEAMX) [2] and in the assay with Zea mays (ZEAMX) [12] was 3 throughout. For the same compound, the “phytotoxicity to the plant, ECHCG” value is listed as 4 in assay [3] and 5 in [8]. Further, the “phytotoxicity to the plant, SETFA” value was determined as 4 in the assay on Setaria faberi (SETFA) [4] and 5 with Setaria faberi (SETFA) [9]. Further, the entries for the “phytotoxicity to the plant, IPOHE” value in assay [5] and in assay [10] were 3 and 1, respectively. In addition, the “phytotoxicity to the plant, ABUTH” value amounted to 1 in assay [6] and 0 in assay [11].
As for `CCc1cc(C2CN(C)C(=O)C2C(=O)Nc2cccc(F)c2C)nn1C(F)F` (stereo not drawn) [Compound 10, 4-[1-(difluoromethyl)-5-ethyl-pyrazol-3-yl]-N-(3-fluoro-2-methylphenyl)-1-methyl-2-oxo-pyrrolidine-3-carboxamide], the “phytotoxicity to the plant, AMARE” value in [1] and in [7] was 1 each time. The “phytotoxicity to the plant, ZEAMX” value in the assay with Zea mays (ZEAMX) [2] and with Zea mays (ZEAMX) [12] was 4 in each case. The “phytotoxicity to the plant, ECHCG” value in assay [3] was 4; in assay [8] it was 5. Further, the entries for the “phytotoxicity to the plant, SETFA” value with Setaria faberi (SETFA) [4] and in the assay on Setaria faberi (SETFA) [9] were 4 and 5, respectively. Further, the figures for the “phytotoxicity to the plant, IPOHE” value in assay [5] and in assay [10] were 4 and 2, respectively. Moreover, the “phytotoxicity to the plant, ABUTH” value is on record as 2 in assay [6] and 0 in assay [11].
